From patent US7998986B2, “Modulators of LXR” (Exelixis Patent Company LLC, priority 2001, dated 2011)

Assays:
LXRα [1] = biological target: T1, LXRα (Homo sapiens, UniProt Q13133); assay: Scintillation proximity assay (SPA), displacement of 3H-24,25-epoxycholesterol; set-up: made in house; conditions: scintillation proximity binding assay; average of at least two dose response experiments; read-out: Ki(α)
T1 sequence (Q13133 1-447): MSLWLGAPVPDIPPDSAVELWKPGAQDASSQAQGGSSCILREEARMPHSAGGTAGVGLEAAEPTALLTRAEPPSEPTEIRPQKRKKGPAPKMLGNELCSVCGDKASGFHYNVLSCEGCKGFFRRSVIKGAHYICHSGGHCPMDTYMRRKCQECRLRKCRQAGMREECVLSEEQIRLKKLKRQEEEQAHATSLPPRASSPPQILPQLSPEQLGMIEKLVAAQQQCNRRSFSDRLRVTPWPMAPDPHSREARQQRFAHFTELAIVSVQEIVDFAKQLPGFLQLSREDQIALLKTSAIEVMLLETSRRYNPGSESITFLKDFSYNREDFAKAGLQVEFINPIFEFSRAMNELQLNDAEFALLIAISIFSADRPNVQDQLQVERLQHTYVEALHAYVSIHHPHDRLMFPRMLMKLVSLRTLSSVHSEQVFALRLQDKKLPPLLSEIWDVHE
T1 sequence (P19793 1-462 partner): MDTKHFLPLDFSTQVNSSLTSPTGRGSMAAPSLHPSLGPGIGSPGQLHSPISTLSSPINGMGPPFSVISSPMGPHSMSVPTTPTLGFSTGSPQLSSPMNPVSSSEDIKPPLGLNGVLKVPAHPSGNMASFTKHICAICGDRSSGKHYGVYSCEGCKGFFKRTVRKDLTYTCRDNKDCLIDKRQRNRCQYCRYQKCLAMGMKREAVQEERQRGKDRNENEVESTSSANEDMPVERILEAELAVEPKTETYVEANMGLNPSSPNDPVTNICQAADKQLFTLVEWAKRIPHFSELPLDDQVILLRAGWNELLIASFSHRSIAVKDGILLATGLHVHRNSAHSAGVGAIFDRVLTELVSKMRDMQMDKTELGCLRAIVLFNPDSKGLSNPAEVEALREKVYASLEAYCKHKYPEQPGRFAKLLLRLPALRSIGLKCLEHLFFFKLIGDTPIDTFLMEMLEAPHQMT
Description: (§1) The SPA assay measures the radioactive signal generated by the binding of ^3H-24, 25-epoxycholesterol to LXRα or LXRβ. The basis of the assay is the use of SPA beads containing a scintillant, such that when binding to the receptor brings the labeled ligand into proximity with the bead, the energy from the label stimulates the scintillant to emit light. The light is measured using a standard microplate scintillation reader. The ability of a ligand to bind to a receptor can be measured by assessing the degree to which the compound can compete off a radiolabelled ligand with known affinity for the receptor.
(§2) A. Required Materials • 1. Label: ^3H-24, 25-epoxy-cholesterol (Amersham) • 2. LXRα lysate: Baculovirus expressed LXRα/RXR heterodimer with RXR having a 6-HIS tag produced as a crude lysate • 3. LXRβ lysate: Baculovirus expressed LXRβ/RXR heterodimer with RXR having a 6-HIS tag produced as a crude lysate • 4. SPA beads: Ysi copper His-tag SPA beads (Amersham) • 5. Plates: Non-binding surface 96-well plate (Corning) • 6. Protein lysate dilution buffer: (20 mM Tris-HCl pH 7.9, 500 mM NaCl, 5 mM Imidazole). • 7. 2×SPA Buffer: (40 mM K2HPO4/KH2PO4 pH7.3, 100 mM NaCl, 0.05% Tween 20, 20% Glycerol, 4mM EDTA) • 8. 2×SPA Buffer w/o EDTA: (40 mM K2HPO4/KH2PO4 pH7.3, 100 mM NaCl, 0.05% Tween 20, 20% Glycerol)
(§3) B. Preparation of Screening Reagents • 1. [^3H]24,25 Epoxycholesterol (EC) solution. For a single 384-well plate (or 400 wells), add 21 μl [^3H] EC (specific activity 76.5Ci/mmol, concentration 3.2mCi/ml) in 4.4 ml of 2×SPA buffer to a final concentration of 200nM. For each additional 384-well plate, add 19.1 μl additional [^3H] EC and 4.0 ml additional 2×SPA buffer. The final concentration of [^3H] EC in the well will be 50 nM. • 2. Dilute LXRα lysate with protein lysate dilution buffer. Make 1400 μl of diluted LXRα lysate for a 384-well plate, (or 200 wells) and 1120 μl of diluted LXRα lysate for each additional 384-well plate. • 3. Diluted LXRβ lysate with protein lysate dilution buffer. Make 1400 μl of diluted LXRβ lysate for 1 a 384-well plate, (or 200 wells) and 1120 μl of diluted LXRβ lysate for each additional 384-well plate. • 4. SPA bead solution. For 1 a 384-well plate (or 400 wells), mix 3.75 ml of 2× SPA buffer w/o EDTA, 2.25 ml of H2O, and 1.5 ml of Ysi His-tag SPA beads (Vortex well before taking). For each addition 384-well plate, mix additional 3.5 ml of 2×SPA buffer w/o EDTA, 2.1 ml of H2O, and 1.4 ml of Ysi His-tag SPA beads to the SPA bead solution.
(§4) C. Procedure: • 1. Prepare appropriate dilutions of each compound and pipette into the appropriate wells of a multiwell plate. • 2. Add 9.1 μl of [^3H] EC to each well of column 2-23 of the multiwell plate. • 3. Add 5 μl of diluted LXRα lysate to each well of column 2-23 on odd rows of the multiwell plate. • Add 5 μl of diluted LXRβ lysate to each well of column 2-23 on even rows of the multiwell plate. • 4. Add 17.5 μl of SPA bead solution to each well of column 2-23 of the multiwell plate. • 5. Cover the plates with clear sealer. Place the plates in the MicroBeta. Incubate at room temperature for 1 hr. • 6. Count using program n ABASE 3H—384DPM. The setting for n ABASE 3H—384DPM is:
(§5) Assays for LXRα and LXRβ were performed in the identical manner. The determined Ki represents the average of at least two independent dose response experiments. The binding affinity for each compound may be determined by non-linear regression analysis using the one site competition formula to determine the IC50 where:
(§6) [formula] The Ki is than calculated using the Cheng and Prusoff equation where:
(§7) [formula] Ligand=50 nM EC and Kd=200 nM as determined by saturation binding

LXRβ [2] = biological target: T2, LXRβ (Homo sapiens, UniProt P55055); assay: as above; set-up: made in house; conditions: scintillation proximity binding assay; average of at least two dose response experiments; read-out: Ki(β)
T2 sequence (P55055 1-460): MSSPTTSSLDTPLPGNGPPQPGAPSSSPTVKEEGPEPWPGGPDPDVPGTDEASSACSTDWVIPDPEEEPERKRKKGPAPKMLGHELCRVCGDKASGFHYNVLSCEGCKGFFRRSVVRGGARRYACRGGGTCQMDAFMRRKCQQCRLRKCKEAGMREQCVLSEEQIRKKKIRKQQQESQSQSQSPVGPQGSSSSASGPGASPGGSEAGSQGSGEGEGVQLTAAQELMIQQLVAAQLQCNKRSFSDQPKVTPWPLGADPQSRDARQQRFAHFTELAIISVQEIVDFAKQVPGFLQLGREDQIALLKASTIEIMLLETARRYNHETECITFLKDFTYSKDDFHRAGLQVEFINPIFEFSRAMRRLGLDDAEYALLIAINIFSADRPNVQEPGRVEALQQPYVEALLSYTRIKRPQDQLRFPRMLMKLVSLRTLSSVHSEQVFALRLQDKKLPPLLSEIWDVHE
T2 sequence (P19793 1-462 partner): T1 sequence (P19793 1-462 partner)
Description: as §1, §2, §3, §4, §5, §6, §7

LXRα [3] = biological target: T1, LXRα; assay: LXR/LXRE co-transfection assay (luciferase reporter, CV-1 cells); format: cell-based; set-up: expressed in transfected cells; host or cells: CV-1 African Green Monkey Kidney Cells; conditions: for EC50: CV-1 cells, agonism; for LXRα/LXRE Eff: efficacy relative to control N-(3-((4-fluorophenyl)-(naphthalene-2-sulfonyl)-amino)propyl)-2,2-dimethylpropionamide
Excerpt: (§8) To measure the ability of compounds to activate or inhibit the transcriptional activity of LXR, in a cell based assay, the cotransfection assay may be used. It has been shown that LXR functions as a heterodimer with RXR. For the co-transfection assay, expression plasmids for LXR and RXR are introduced via transient transfection into mammalian cells along with a luciferase reporter plasmid that contains one copy of a DNA sequence that is bound by LXR-RXR heterodimers (LXRE; Willy, P. et al. 1995). Treatment of transfected cells with an LXR agonist increases the transcriptional activity of LXR, which is measured by an increase in luciferase activity.
(§9) A. Required Materials • 1. CV-1 African Green Monkey Kidney Cells • 2. Co-transfection Expression plasmids, CMX-hLXR, or CMX-hLXR, CMX-RXR, reporter (LXREx1-Tk-Luciferase), and control (CMX-Galactosidase expression vector). • 3. Transfection reagent such as FuGENE6 (Roche). • 4. 1× Cell lysis buffer (1% Triton X 100 (JT Baker X200-07), 10% Glycerol (JT Baker M778-07), 5 mM Ditriotreitol (Quantum Bioprobe DTT03; add fresh before lysing), 1 mM EGTA (Ethylene Glycol-bis (B-Amino ethyl ether)-N,N,N′,N′-Tetracetic Acid) (Sigma E-4378), 25 mM Tricine (ICN 807420) pH 7.8 • 5. 1× Luciferase assay buffer (pH at 7.8) (0.73 mM ATP, 22.3 mM Tricine, 0.11 mM EDTA 33.3 mM DTT) • 6. 1× Luciferrin/CoA (11 mM Luciferin, 3.05 mM Coenzyme A, 10 mM HEPES
(§10) B. Preparation of Screening Reagents • 1. CV-1 cells are prepared 24 hours prior to the experiment by plating them into T-175 flasks or 500 cm^2 dishes in order to achieve 70-80% confluency on the day of the transfection. The number of cells to be transfected is determined by the number of plates to be screened. Each 384 well plate requires 1.92×10^6 cells or 5000 cells per well. • 2. DNA Transfection Reagent is prepared by mixing the required plasmid DNAs with a cationic lipid transfection reagent such as DOTAP or FuGENE6 by following the instructions provided with the reagents. Optimal DNA amounts need to be determined empirically per cell line and size of vessel to be transfected. • 3. Add 10-12 mls media to the DNA Transfection Reagent and add this mixture to the cells after aspirating media from a T175 cm^2 flask. • 4. Incubate at least 5 hours at 37 degrees to prepare screening cells. • 5. Luciferase assay reagent is prepared by combining before use (per • 10 ml): • 10 ml 1× Luciferase assay buffer • 0.54 mls of 1× Luciferrin/CoA • 0.54 mls of 0.2 M Magnesium sulfate
(§11) 1. C. Procedure • 1. Prepare assay plates by dispensing 0.5 ul of 1 mM compound per well of a 384 well plate to achieve final compound concentration of 10 uM and 1% DMSO. • 2. Remove media from the screening cells, trypsinize, harvest cells by centrifugation, count the cells, and plate at 5000 cells per well in the 384 well assay plate prepared above in a volume of about 45 ul. • 3. Incubate assay plates containing both compounds and screening cells for 20 hours at 37 C. degrees. • 4. Carefully aspirate media from cells and ensure that cells are not lifted off. • 5. Add lysis buffer (30 ul/well) and incubate at least 30 minutes room temp. • 6. Add luciferase assay buffer (30 ul/well) and read assay plates on luminometer (PE Biosystems Northstar reader with on-board injectors, or equivalent). • 7. Read plates immediately after addition of luciferase assay reagent.
(§12) The LXR/LXRE co-transfection assay can be used to establish the EC50/IC50 values for potency and percent activity or inhibition for efficacy. Efficacy defines the activity of a compound relative to a high control ((N-(3-((4-fluorophenyl)-(naphthalene-2-sulfonyl)-amino)propyl)-2,2-dimethylpropionamide)) or a low control (DMSO/vehicle). The dose response curves are generated from an 8 point curve with concentrations differing by ½ LOG units. Each point represents the average of 4 wells of data from a 384 well plate. The curve for the data is generated by using the equation: Y=Bottom+(Top-Bottom)/(1+10^((LogEC50-X)*HillSlope)) […]

LXRβ [4] = biological target: T2, LXRβ; assay: as above; format: cell-based; set-up: expressed in transfected cells; host or cells: CV-1 African Green Monkey Kidney Cells; conditions: for EC50: CV-1 cells, agonism; for LXRβ/LXRE Eff: efficacy relative to control N-(3-((4-fluorophenyl)-(naphthalene-2-sulfonyl)-amino)propyl)-2,2-dimethylpropionamide
Excerpt: as §8, §9, §10, §11, §12

Ki (LXRα [1]) [nM] | Ki (LXRβ [2]) [nM] | EC50 (LXRα [3]) [nM] | LXRα/LXRE Eff (LXRα [3]) [%] | EC50 (LXRβ [4]) [nM] | LXRβ/LXRE Eff (LXRβ [4]) [%] | Structure (SMILES)
360 | 230 | 580 | 91 | 810 | 93 | Cc1ccc(Cn2c(-c3ccccc3)cc(C(F)(F)F)c(C#N)c2=O)o1 [1-(5-Methyl-furan-2-ylmethyl)-2-oxo-6-phenyl-4-trifluoromethyl-1,2-dihydro-pyridine-3-carbonitrile]
1400 | 580 | 1600 | 56 | 1800 | 82 | N#Cc1c(C(F)(F)F)cc(-c2cccs2)n(Cc2ccccc2)c1=O [1-Benzyl-2-oxo-6-thiophen-2-yl-4-trifluoromethyl-1,2-dihydro-pyridine-3-carbonitrile]
510 | 120 | 1200 | 78 | 840 | 79 | COc1cccc(-c2cc(C(F)(F)F)c(C#N)c(=O)n2Cc2ccccc2)c1 [1-Benzyl-6-(3-methoxy-phenyl)-2-oxo-4-trifluoromethyl-1,2-dihydro-pyridine-3-carbonitrile]
690 | 450 | 3400 | 90 | 4300 | 72 | N#Cc1c(C(F)(F)F)cc(-c2ccccc2)n(N=C2CCCCC2)c1=O [1-Cyclohexylideneamino-2-oxo-6-phenyl-4-trifluoromethyl-1,2-dihydropyridine-3-carbonitrile]
